Assay results published in US20200399262A1, “COMPOUNDS FOR INHIBITING PROTEIN DEGRADATION AND METHODS OF USE THEREOF IN THE TREATMENT OF CANCER” (PI Therapeutics Ltd, priority 2018, published 2020).
pEC50: −log10 of the molar value.

Assays:
UACC-62 = experiment: NCI60 screen cytotoxicity; type: cell-based; conditions: Homo sapiens, Melanoma, read-out: Compound B1 EC50
[1] = system: autophagic vacuoles in MM1.S cells; experiment: Autophagy quantification with CYTO-ID dye, flow cytometry; type: cell-based; conditions: 0.2 μM, 5 hours, vs vehicle
Procedure: MM1.S cells were treated with 0.2 μM Compound B1 or vehicle (DMSO) for 5 h. Detection of autophagy vesicles was done by CYTO-ID® green autophagy dye that selectively labels autophagic vacuoles. The samples were analyzed using flow cytometer and the data were plotted on histogram: cell counts vs. FITC fluorescence intensity.
Autophagy Quantification: Quantification of autophagosomes were done with CytoID (ENZO). CYTO-ID® Autophagy Detection Kit measures autophagic vacuoles and monitors autophagic flux in live cells using a dye that selectively labels autophagic vacuoles. The probe is a cationic amphiphilic tracer dye that rapidly partitions into cells in a similar manner as drugs that induce phospholipidosis. MM1.S cells were treated with Compound B1 or vehicle for 5 hours. Following treatment period the cells were harvested and stained with CytoID dye according to manufacturer instructions. Autophagosomes were analyzed and quantified using flow cytometer (Miltenyi). Data of cell counts were plotted as FITC (FL1) fluorescence intensity.

proteasome = experiment: Proteasome activity (Proteasome-GLO) in intact MM1.S cells; type: cell-based; conditions: 3 hr at 37° C.
Procedure: Proteasome activity was measured in intact MM1.S cells as cleavage of peptide substrates, specific for Trypsin like (TL), Chemotrypsin like (CTL) and Caspase like (PL) activities of the proteasome following treatment with Compound B1, Compound AA or Bortezomib (BTZ) at ˜EC50 concentrations for 3 hr at 37° C. BTZ was used as positive control.
Proteasome activity. The assay was performed only when cell viability is ≥90%. Cells were seeded in 96-well white clear bottom plates and treated with diluted compounds or vehicle control in triplicates for 3 hours at various concentrations. Catalytic activity was measured using three luminogenic proteasome substrates: Suc-LLVY-aminoluciferin (Succinyl-leucine-leucine-valine-tyrosine-aminoluciferin), Z-LRR-aminoluciferin (Z-leucine-arginine-arginine-aminoluciferin) and Z-nLPnLD-aminoluciferin (Z-norleucine-proline-norleucine-aspartate-aminoluciferin) for the chymotrypsin-like, trypsin-like and caspase-like activities, respectively (Proteasome-GLO, Promega). The emitted light was proportional to the proteasomal activity. Catalytic activity was calculated as the percent activity from control vehicle-treated cells.
MM1.S cells, were treated with Compound B1, Compound AA or Bortezomib (BTZ) at various concentrations for 3 hr at 37° C. […] Proteasome activity was measured by cleavage of proteasome-specific peptide substrates for TL, CTL and PL activities.

HOP-92 = experiment: NCI60 screen cytotoxicity; type: cell-based; conditions: Homo sapiens, Lung cancer, read-out: Compound B1 EC50
MM1.S xenograft = experiment: MM1.S subcutaneous flank xenograft in athymic nude mice; type: in vivo; conditions: for MM tumor growth compared to vehicle control / body weight % changes: TIW for 21 days; for Blood chemistry profiles (liver or kidney toxicity): TIW, treated mice
Text: FIG. 4A-4D depicts the growth inhibition of MM1.S xenograft in nude mice by Compound B1 (FIG. 4A, FIG. 4B) and Compound AA (FIG. 4C, FIG. 4D). FIG. 4A and FIG. 4C show tumor growth inhibition observed at end point measurements by Compound B1 and AA respectively. […] MM.1S cells (5×10^6 cells/mouse) were implanted in the rear flank of mail mice (6 weeks of age at the time of tumor implantation). On Day 20-23, mice were randomized for equivalent distribution of tumor volumes to treatment groups (n=5/group) and treated IV with vehicle, compound B1 (FIG. 4A) and compound AA (FIG. 4C), three time a week (TIW) for 21 days. Data are presented as mean tumor volume±SD. Body weight % changes in treated animals observed during the course of the study for compound B1 (FIG. 4B) and Compound AA (FIG. 4D).
Animal xenograft models. MM1.S, HCT-116, SW620 cell lines were purchased from ATCC and used for xenograft model. The cells were cultured in RPMI medium (Sigma-Aldrich) supplemented with 10% fetal bovine serum (FBS) and divided for up to 5 passages. Shortly prior to injection, cell suspension was mixed with Matrigel at 1:1 (V/V) and injected subcutaneously to the rear flank area of male nude athymic 6 weeks old mice to obtain administration of 5×10^6 cells/animal. On day 20-23, when tumor volume reached 100-150 mm^3, mice were randomized for equivalent distribution of tumor volumes to treatment groups (n=5/group) and treated via intravenous injection.

[2] = system: PBMCs from healthy donors; experiment: In-vitro safety in PBMCs from healthy donors (ATPlite viability); type: cell-based; conditions: for therapeutic window, EC50 (PBMC)/EC50 (MM1.S) ratio: 5 healthy donor PBMC samples, viability 48 h later; for therapeutic window, EC50 (PBMC)/EC50 (MM1.S) ratio / cytotoxicity to PBMCs from healthy donors: 6 h treatment; for sensitivity of MM1.S cells versus PBMCs from healthy donors: 6 hr exposure, viability following 48 h of incubation; for cytotoxicity to PBMCs from healthy donors: viability 48 h later (ATPlight assay)
Procedure: FIG. 5 depicts the in-vitro safety of Compound B1 and Compound AA in Peripheral Blood Mononuclear Cells (PBMCs) from healthy donors respectively. MM1.S cells and normal PBMCs from healthy donors were treated with various concentrations of indicated compounds for 6 h and then analyzed 48 h later for cell viability (ATPlight assay). […] Calculated therapeutic windows: […], generated from 5 healthy donor PBMC samples, based on mean viability data.
PBMCs from healthy donors were exposed to Compound B1 and Compound AA for 6 hr and analyzed for viability by ATPight following 48 h of incubation. Results are representative of PBMCs from 5 healthy volunteers (FIG. 5). EC50 (PBMC)/EC50 (MM1.S) ratio, generated from 5 healthy donor PBMC samples, is shown for Compound B1, Compound AA and other UPS inhibitors [ixazomib, Bortezomib (BTZ) and CB5083].

U251 = experiment: NCI60 screen cytotoxicity; type: cell-based; conditions: Homo sapiens, U-251, CNS, read-out: Compound B1 EC50
[3] = system: poly-ubiquitinated proteins; experiment: Western blot of poly-ubiquitinated proteins in MM1.S cells; type: cell-based; conditions: SDS-PAGE immunoblot
Procedure: MM1.S cells were treated with Compound B1 (FIG. 1A), Compound AA (FIG. 1B) and Compound E1 (FIG. 1C) for indicated periods of time. Following treatment, the cells were harvested, and the lysates resolved on SDS-PAGE. Transferred membranes were blotted with antibodies as indicated. Actin was used as loading control.
Protein analysis by Western blot. At the end of treatment period, the cells were lysed with M-PER mammalian protein extraction reagent (ThermoFisher Scientific) supplemented with protease inhibitors. Equal protein amounts were resolved on pre-cast SDS-PAGE (ThermoFisher Scientific) and transferred to a PVDF membrane. The membrane was immunoblotted with antibodies as indicated. The following antibodies were used: Ub MAb (SC-8017, Santa-Cruz), ATF4, ATF6, phospho JNK, JNK (Cell signaling); eIF2alpha, phospho eIF2alpha (Novus).

| SMILES | pEC50 (UACC-62) | autophagosomal vesicles (CYTO-ID fluorescence) [1] | inhibition of the enzymatic functions of the proteasome (TL, CTL and PL activities) (proteasome) | pEC50 (HOP-92) | MM tumor growth compared to vehicle control (MM1.S xenograft; 5 mg/kg IV) | body weight % changes (MM1.S xenograft; 5 mg/kg IV) | Blood chemistry profiles (liver or kidney toxicity) (MM1.S xenograft; 5 mg/kg IV) | therapeutic window, EC50 (PBMC)/EC50 (MM1.S) ratio [2] | sensitivity of MM1.S cells versus PBMCs from healthy donors [2] | cytotoxicity to PBMCs from healthy donors [2] | pEC50 (U251) | accumulation of poly-ubiquitinated proteins [3] | MM tumor growth compared to vehicle control (MM1.S xenograft; 4 mg/kg IV) | body weight % changes (MM1.S xenograft; 4 mg/kg IV) | Blood chemistry profiles (liver or kidney toxicity) (MM1.S xenograft; 4 mg/kg IV) |
| --- | --- | --- | --- | --- | --- | --- | --- | --- | --- | --- | --- | --- | --- | --- | --- |
| CN(C)CC(=O)NCC(=O)N1C/C(=C\c2ccc(C#N)cc2)C(=O)/C(=C/c2ccc(C#N)cc2)C1 [Compound B1] | 6.00 to 6.52 | significantly lower fluorescent dye then vehicle treated cells | does not Inhibit | 6.00 to 6.52 | significantly inhibited MM tumor growth | No significant weight loss | no clinical abnormalities suggestive of liver or kidney toxicity | larger Tx window than competing UPS inhibitors | more sensitive | less cytotoxic to PBMCs from healthy donors than Ixazomib, Bortezomib (BTZ) and CB5083 | > 6.52 | observable accumulation of poly-ubiquitinated proteins | – | – | – |
| CN(C)CCCS(=O)(=O)N1C/C(=C\c2ccc(C#N)cc2)C(=O)/C(=C/c2ccc(C#N)cc2)C1 [Compound AA] | – | – | does not Inhibit | – | – | – | – | larger Tx window than competing UPS inhibitors | more sensitive | less cytotoxic to PBMCs from healthy donors than Ixazomib, Bortezomib (BTZ) and CB5083 | – | observable accumulation of poly-ubiquitinated proteins | significantly inhibited MM tumor growth | No significant weight loss | no clinical abnormalities suggestive of liver or kidney toxicity |
